Test [1] concerns the target T1, SIRT3 (Homo sapiens, UniProt Q9NTG7).
T1 construct: purchased Enzo Life Sciences BML-AK557-0001
T1 sequence (Q9NTG7 1-399): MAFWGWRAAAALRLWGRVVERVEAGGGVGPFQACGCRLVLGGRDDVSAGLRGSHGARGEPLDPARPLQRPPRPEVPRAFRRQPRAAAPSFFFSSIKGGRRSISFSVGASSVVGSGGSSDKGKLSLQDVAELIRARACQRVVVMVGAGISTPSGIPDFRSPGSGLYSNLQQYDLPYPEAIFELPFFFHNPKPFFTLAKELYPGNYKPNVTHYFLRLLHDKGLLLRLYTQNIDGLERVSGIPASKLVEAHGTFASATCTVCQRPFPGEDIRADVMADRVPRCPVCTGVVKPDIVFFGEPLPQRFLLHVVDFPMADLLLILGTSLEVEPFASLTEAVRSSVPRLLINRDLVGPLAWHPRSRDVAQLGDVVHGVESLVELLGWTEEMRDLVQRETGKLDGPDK
Briefly: Fluor de Lys (FDL) fluorimetric SIRT3 deacetylase activity assay. The format is biochemical. Here is the method:
The SIRT3 activity was assessed using the Enzo Life Sciences kit (BML-AK557-0001) per the protocol provided. A 10 μM fluoro-acetylated p53 peptide and 500 μM NAD^+ were added to SIRT3 assay buffer, incubated with test compounds and 0.5 μg recombinant SIRT3 at 37 °C for 30 min. In the mass spectrometry (MS) assay, 5 μM hSirt3 was reacted with 0.25 mM peptide and 1.25 mM NAD^+, with or without 10 μM SKLB-11A in 2% DMSO, at 37 °C. Controls included 2% DMSO without SKLB-11A. The reaction was halted at defined intervals using 5 mM nicotinamide, and the mixture then underwent filtration and subjected to nano LC-MS/MS analysis. Acetylated Peptide: MnSOD-K122 ([…]-Ac).

The target of a further test is T2, SIRT1 (Homo sapiens, UniProt Q96EB6).
T2 sequence (Q96EB6 1-747): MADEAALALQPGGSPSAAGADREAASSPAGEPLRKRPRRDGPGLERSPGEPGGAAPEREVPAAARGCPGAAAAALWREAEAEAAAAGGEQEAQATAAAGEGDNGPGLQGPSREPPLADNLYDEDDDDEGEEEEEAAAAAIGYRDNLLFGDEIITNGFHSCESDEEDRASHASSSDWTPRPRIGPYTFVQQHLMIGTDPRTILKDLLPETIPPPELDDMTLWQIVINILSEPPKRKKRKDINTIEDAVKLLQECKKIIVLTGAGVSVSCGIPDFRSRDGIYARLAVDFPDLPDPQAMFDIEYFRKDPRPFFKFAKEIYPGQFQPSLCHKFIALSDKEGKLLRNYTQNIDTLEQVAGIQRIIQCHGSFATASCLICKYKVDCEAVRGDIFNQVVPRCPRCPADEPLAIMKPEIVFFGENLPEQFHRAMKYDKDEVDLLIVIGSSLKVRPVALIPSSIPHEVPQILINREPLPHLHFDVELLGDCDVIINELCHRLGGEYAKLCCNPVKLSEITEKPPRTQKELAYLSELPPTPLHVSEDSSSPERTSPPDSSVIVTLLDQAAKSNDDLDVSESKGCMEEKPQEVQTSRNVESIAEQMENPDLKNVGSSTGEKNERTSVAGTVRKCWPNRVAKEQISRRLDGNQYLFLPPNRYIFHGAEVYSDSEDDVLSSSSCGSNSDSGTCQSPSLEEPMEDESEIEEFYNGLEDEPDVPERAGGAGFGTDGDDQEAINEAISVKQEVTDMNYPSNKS
Briefly: SPR binding to SIRT1. As to the method:
The affinity of SKLB-11A for SIRT1, SIRT2, SIRT3, SIRT5, and SIRT6 was determined using a Reichert 4SPR system (Reichert Technologies, Depew, NY, USA). Proteins at 200 μg/mL were immobilized on a dextran-coated sensor chip (13206066) until reaching ≥12,000 response units (RUs). A dual-flow channel setup was used, reserving one channel for blank controls. SKLB-11A was introduced at varying concentrations for binding and subsequent dissociation kinetic analysis. Data acquisition was at 25 °C utilizing a PBST running buffer (pH 7.4). The equilibrium dissociation constant (K d) was computed from steady-state affinity measurements using TraceDrawer software.
For orientation: SPR reads the build-up and loss of mass on a sensor chip optically.

For test [2], the target named is T1, SIRT3. Nature of the test: Coupled enzymatic assay, acetylated MnSOD-K122 substrate. The note with it: 100 μM. The format is biochemical. The text has this:
Additionally, we used surface plasmon resonance (SPR) to measure the binding of SKLB-11A to immobilized SIRT3. […] We next evaluated the selectivity of SKLB-11A for different SIRT family members. […] We next examined the functional specificity of SKLB-11A using coupled enzymatic assays with isoform-specific, physiologically relevant substrates: acetylated p53-K381 for SIRT1, acetylated α-tubulin-K25 for SIRT2, acetylated MnSOD-K122 for SIRT3, and succinylated CPS1-K537 for SIRT5 (Supplementary Table S3). […] Using Schrödinger molecular docking simulations, we assessed the binding interactions of SKLB-11A with SIRT isoforms.

The test system of another test is H9c2 cells. Briefly: Intracellular ROS (DCFH-DA) and mitochondrial membrane potential (JC-1) in Dox-treated H9c2 cells. The format is cell-based. Here is the method: Mitochondrial membrane potential and reactive oxygen species (ROS) levels within cells were assessed using the JC-1 Mitochondrial Membrane Potential Assay Kit (Beyotime, Beijing, China) and the DCFH-DA probe (Beyotime, Shanghai, China), respectively, following the manufacturer’s guidelines. , For mitochondrial membrane potential quantification, cells were treated with JC-1 solution and incubated for 20 min at 37 °C in the dark. ROS quantification involved a 25 min incubation at 37 °C in the dark with DCFH-DA solution. Postincubation, cells underwent three gentle washes with prewarmed buffer. Visualization was achieved using a Nikon (Ni-E) fluorescence microscope and quantified by flow cytometry (BD FACS Calibur).

For test [3], the system named is myocardial ischemia/reperfusion (I/R) injury model. Briefly: Mouse model of myocardial I/R injury. The format is in vivo, C57BL/6J mice.

By EC50 is commonly meant the concentration needed to bring the measured effect to its halfway point. What is called Kd is a measure of binding affinity in units of concentration. Low readings indicate higher affinity, high ones lower affinity.

As to `COC(=O)c1c(N)n(Cc2ccc(F)cc2)c2nc3ccccc3nc12` [SKLB-11A, Methyl 2-amino-1-(4-fluorobenzyl)-1H-pyrrolo[2,3-b]quinoxaline-3-carboxylate], at SIRT3 [1] (100 µM, FDL deacetylation assay, compared to the control group, mean ± SD), the “% effect @ 100 µM of SIRT3” value is on record as “maintained or enhanced the activity”. The activity at 100 µM on SIRT3 [1] (0.5 h, 100 µM, FDL deacetylation assay, compared to the control group, mean ± SD, read-out: % effect @ 100 µM of SIRT3) was 188.1 ± 1.58%. The “SIRT3 activation compared with other SIRT3 activators” value on SIRT3 [1] (FDL assay) is listed as “better SIRT3 activation”. Further, the 50% effective concentration (EC50) on SIRT3 [1] (FDL assay, read-out: EC50, SIRT3 deacetylation activity) worked out at 22 ± 1.57 µM. Also, the dissociation constant Kd on SIRT1 (SPR) was over 200 µM. On SIRT1 (SPR Kd ratio), the “affinity for SIRT1 lower than its affinity for SIRT3” value is “approximately 40 times”. Besides, at SIRT3 [2], the “effect on SIRT3 deacetylation activity” value is recorded as “pronounced activation”. The “Dox-induced dissipation of mitochondrial membrane potential (MMP)” value in the test on H9c2 cells (JC-1) was “notably preserved”. For the same compound, the “Dox-induced increase of ROS levels” value in the test on H9c2 cells (pretreatment, DCFH-DA) is “effectively suppressed this increase”. Besides, the “I/R-induced elevations in serum LDH, CK-MB, BNP” value in test [3] (20 mg/kg ig, 24 h after I/R surgery) was “partially reversed”. The infarct size entry in test [3] (20 mg/kg ig, Evans blue/TTC, 24 h after I/R, vs I/R group) was “significant reduction in infarcted areas”. Also, the I/R-induced cardiac fibrosis result in test [3] (20 mg/kg ig, Masson's trichrome, 28 d after I/R) is listed as “markedly reduced”. For the same compound, in test [3] (20 mg/kg/day, ig, 1 week, I/R mice), the “cardiac function (EF and FS)” value is on record as “restored cardiac function”.

The values above are taken from PMC12123458, “Unraveling Small Molecule-Mediated Sirtuin 3 Activation at a Distinct Binding Site for Cardioprotective Therapies” (ACS Central Science, 2025).
